Reference: patent US20130029970A1 (priority 2009, published 2013)

Legend:
[1] = target: T1, recombinant human cannabinoid receptor CB1 (Homo sapiens, UniProt P21554); assay: Cannabinoid receptor radioligand binding assay, [3H]-CP 55,940 displacement, hCB1
T1 construct: (cDNA clone) CNR01L000
How it was run: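 Membranes from HEK-293 cells stably expressing human CB1, 2-10 μg protein, incubated 90 min at room temperature with 0.5 nM [3H]-CP 55,940 in Tris-HCl pH 7.5, MgCl2, EDTA and 0.1% fatty-acid-free BSA. Bound radioactivity counted after rapid filtration; nonspecific binding defined with 1 μM unlabeled CP 55,940.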

human CB2 receptors = target: T2, human CB2 receptors (Homo sapiens, UniProt P34972); assay: cAMP assay in HEK-293 cells, hCB2 agonist; assay type: cell-based
T2 construct: (cDNA clone) CNR0200000
T2 sequence (P34972 whole entry): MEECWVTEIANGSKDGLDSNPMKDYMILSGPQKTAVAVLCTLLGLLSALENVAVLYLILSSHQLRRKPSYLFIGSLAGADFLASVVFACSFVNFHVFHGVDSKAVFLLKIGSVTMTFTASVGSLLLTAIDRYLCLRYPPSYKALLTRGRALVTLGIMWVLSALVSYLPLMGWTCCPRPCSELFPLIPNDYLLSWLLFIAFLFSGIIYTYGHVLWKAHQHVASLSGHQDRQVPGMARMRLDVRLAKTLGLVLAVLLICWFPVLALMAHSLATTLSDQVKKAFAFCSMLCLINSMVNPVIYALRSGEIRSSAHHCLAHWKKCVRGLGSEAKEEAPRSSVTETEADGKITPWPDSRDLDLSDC
How it was run: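 HEK-293 cells stably expressing human CB2, suspended at 1,500,000 cells/mL in HBSS with 10 mM HEPES and 0.1% fatty-acid-free BSA, exposed to test compound plus forskolin (90 uM in the 3× compound solution) for 30 min at 37° C.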

human CB1 receptors = target: T3, human CB1 receptors (Homo sapiens, UniProt P21554); assay: cAMP assay in HEK-293 cells, hCB1 agonist; assay type: cell-based; conditions: inhibition of forskolin-stimulated cAMP, HEK-293 cells; for EC50: read-out: hCB1 EC50 (cAMP ag)
T3 construct: (cDNA clone) CNR01L000
T3 sequence (P21554 whole entry): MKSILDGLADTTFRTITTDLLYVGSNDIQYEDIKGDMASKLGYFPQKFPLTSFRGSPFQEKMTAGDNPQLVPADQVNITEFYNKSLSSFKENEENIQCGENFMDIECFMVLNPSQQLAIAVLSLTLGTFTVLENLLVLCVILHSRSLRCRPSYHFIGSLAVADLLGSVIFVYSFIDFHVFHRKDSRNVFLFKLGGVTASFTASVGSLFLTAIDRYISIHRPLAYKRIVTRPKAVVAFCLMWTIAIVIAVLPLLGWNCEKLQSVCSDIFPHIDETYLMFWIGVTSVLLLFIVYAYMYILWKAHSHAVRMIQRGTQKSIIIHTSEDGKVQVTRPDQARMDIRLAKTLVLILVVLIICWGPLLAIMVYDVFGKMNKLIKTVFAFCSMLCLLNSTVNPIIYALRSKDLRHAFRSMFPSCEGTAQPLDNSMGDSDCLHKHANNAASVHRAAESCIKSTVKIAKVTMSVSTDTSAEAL
How it was run: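 Stable hCB1 HEK-293 cells suspended in HBSS with 10 mM HEPES and 0.1% fatty acid-free BSA, incubated 30 min at 37° C. with compound plus forskolin (90 uM in the 3× compound solution). Lysed cAMP measured by enzyme-fragment kit; EC50 = 50% inhibition of forskolin-stimulated cAMP (forskolin maximum = 100%), sigmoidal fit.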

T1 sequence (P21554 whole entry): as above

SMILES | IC50 [1] | EC50 (human CB2 receptors) | hCB1 EC50 (cAMP ag, nM) (human CB1 receptors) | EC50 (human CB1 receptors)
COc1ccc(C(=O)c2cc3cc(C)n(CCCNC(=O)C(F)(F)F)c3s2)cc1 [Compound 76, 2,2,2-Trifluoro-N-(3-(2-(4-methoxybenzoyl)-5-methyl-6H-thieno[2,3-b]pyrrol-6-yl)propyl)acetamide] | 1000 to 10000 nM | 100 to 1000 nM | NS (NS means “Not Significant,” which means less than 30% agonist activity when compared to the positive control.) | 
Cc1cc2cc(C(=O)c3ccc(Cl)c(Cl)c3)sc2n1CCN1CCOCC1 [Compound 9, (3,4-Dichlorophenyl)(5-methyl-6-(2-morpholinoethyl)-6H-thieno[2,3-b]pyrrol-2-yl)methanone] | 1000 to 10000 nM | 100 to 1000 nM | NS (NS means “Not Significant,” which means less than 30% agonist activity when compared to the positive control.) | 
Cc1cc2cc(C(=O)c3cccc(Cl)c3Cl)sc2n1CCN1CCOCC1 [Compound 1, (2,3-dichlorophenyl)(5-methyl-6-(2-morpholinoethyl)-6H-thieno[2,3-b]pyrrol-2-yl)methanone] | 100 to 1000 nM | < 100 nM |  | > 10000 nM
Cc1ccc(C(=O)c2cc3cc(C)n(CCN4CCOCC4)c3s2)cc1 [Compound 124, (5-Methyl-6-(2-morpholinoethyl)-6H-thieno[2,3-b]pyrrol-2-yl)(p-tolyl)methanone] | 1000 to 10000 nM | < 100 nM |  | 1000 to 10000 nM
CCCn1c(C)cc2cc(C(=O)c3cccc(Cl)c3Cl)sc21 [Compound 3, (2,3-Dichlorophenyl)(5-methyl-6-propyl-6H-thieno[2,3-b]pyrrol-2-yl)methanone] | 1000 to 10000 nM | < 100 nM | NS (NS means “Not Significant,” which means less than 30% agonist activity when compared to the positive control.) | 
